Measured values as given in US7517658B2, “Methods for preparing compositions using a SNORF33 receptor” (H. Lundbeck A/S, priority 1999, dated 2009).
“And” between values parts separate entries of the source, which are not always exact repeats. Identical values can stand only once.

How the values were obtained:
hSNORF33 [1] = target: T1, hSNORF33 (Homo sapiens, UniProt Q96RJ0); assay: [3H]-TYR binding (saturation and displacement) to human SNORF33 COS-7 membranes; parameters: expressed in transfected cells; host or cells: COS-7 (membranes); details: human SNORF33 in transfected COS-7 membranes; read-out: Mean Ki ± S.D.M., displacement of [3H]-tyramine
T1 sequence (Q96RJ0 1-339): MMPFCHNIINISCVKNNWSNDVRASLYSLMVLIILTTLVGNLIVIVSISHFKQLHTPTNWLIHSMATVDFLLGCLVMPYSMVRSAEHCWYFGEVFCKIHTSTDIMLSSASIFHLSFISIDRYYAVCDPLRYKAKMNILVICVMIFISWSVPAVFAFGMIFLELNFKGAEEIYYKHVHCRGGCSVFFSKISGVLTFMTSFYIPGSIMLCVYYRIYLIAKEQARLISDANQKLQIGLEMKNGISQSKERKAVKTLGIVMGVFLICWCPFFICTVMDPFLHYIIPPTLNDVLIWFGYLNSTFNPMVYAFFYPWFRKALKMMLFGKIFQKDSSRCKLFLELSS
Experimental: (§1) [^3H]-TYR and [^3H]-T binding assays were performed essentially as described by Mallard et al. (1992), with minor modifications. Radioligand binding assays were performed by diluting membranes prepared from cells expressing the receptor (with co-expression of the rat G-protein alpha S subunit for human SNORF33) in 25 mM Gly-Gly buffer (Sigma, pH=7.4 @ 0° C.) containing 5 mM ascorbate and 10 μM pargyline (final protein concentration in assay=100-300 μg/ml). Membranes were then incubated with either [^3H]-TYR (American Radiochemicals, specific activity 60 mCi/μmole) or [^3H]-T (Amersham, specific activity 98 mCi/μmole) in the presence or absence of competing ligands on ice for 30 min in a total volume of 250 μl in 96 well microtiter plates. The bound ligand was separated from free by filtration through GF/B filters presoaked in 0.5% polyethyleneimine (PEI), using Tomtec (Wallac) or Brandel Cell Harvester vacuum filtration device. After addition of Ready Safe (Beckman) scintillation fluid, bound radioactivity was quantitated using a Trilux (Wallac) scintillation counter (approximately 20% counting efficiency of bound counts). Data was fit to non-linear curves using GraphPad Prism.
(§2) In this manner, agonist or antagonist compounds that bind to the receptor may be identified as they inhibit the binding of the labeled ligand to the membrane protein of cells expressing the said receptor. Non-specific binding was defined as the amount of radioactivity remaining after incubation of membrane protein in the presence of 10 μM of the unlabeled amine corresponding to the radioligand used. In equilibrium saturation binding assays, membrane preparations or intact cells transfected with the receptor are incubated in the presence of increasing concentrations of the labeled compound to determine the binding affinity of the labeled ligand. The binding affinities of unlabeled compounds may be determined in equilibrium competition binding assays, using a fixed concentration of labeled compound in the presence of varying concentrations of the displacing ligands.

rSNORF33 [2] = target: T2, rSNORF33 (Rattus norvegicus, UniProt Q923Y9); assay: Intracellular cAMP release in rSNORF33-transfected COS-7 cells; type: cell-based; parameters: expressed in transfected cells; host or cells: COS-7 (transient)
Experimental: (§3) The receptor-mediated stimulation or inhibition of cyclic AMP (cAMP) formation may be assayed in cells expressing the mammalian receptors. Cells are plated in 96-well plates or other vessels and preincubated in a buffer such as HEPES buffered saline (NaCl (150 mM), CaCl2 (1 mM), KCl (5 mM), glucose (10 mM)) supplemented with a phosphodiesterase inhibitor such as 5 mM theophylline, with or without protease inhibitor cocktail (For example, a typical inhibitor cocktail contains 2 μg/ml aprotinin, […] leupeptin, and 10 μg/ml phosphoramidon.) for 20 min at 37° C., in 5% CO2. Test compounds are added with or without […] forskolin and incubated for an additional 10 min at 37° C. The medium is then aspirated and the reaction stopped by the addition of 100 mM HCl or other methods. The plates are stored at 4° C. for 15 min, and the cAMP content in the stopping solution is measured by radioimmunoassay. Radioactivity may be quantified using a gamma counter equipped with data reduction software. Specific modifications may be performed to optimize the assay for the receptor or to alter the detection method of cAMP.
(§4) COS-7 cells were transiently transfected with rSNORF33 gene using the calcium phosphate method and plated in 96-well plates. 48 hours after transfection, cells were washed twice with Dulbecco's phosphate buffered saline (PBS) supplemented with 10 mM HEPES, 10 mM glucose, 5 mM theophylline and 10 μM pargyline and were incubated in the same buffer for 20 min at 37° C., in […] 5% CO2. Test compounds were added and cells were incubated for an additional 10 min at 37° C. The medium was then aspirated and the reaction stopped by the addition of 100 mM HCl. The plates were stored at −20° C. for 2-5 days. For cAMP measurement, plates were thawed and the cAMP content in each well was measured by radioimmunoassay cAMP Scintillation Proximity Assay (Amersham Pharmacia Biotech). Radioactivity was quantified using microbeta Trilux counter (Wallac).

mouse SNORF33 [3] = target: T3, mouse SNORF33 (Mus musculus, UniProt Q923Y8); assay: [3H]-TYR binding (saturation and displacement) to mouse SNORF33 COS-7 membranes; details: mouse SNORF33, displacement of [3H]TYR; read-out: Ki (individual determinations)
T3 construct: expressed in transfected cells; host or cells: COS-7 (membranes)
Experimental: as §1, §2

rSNORF33 [4] = target: T2, rSNORF33; assay: [3H]-TYR binding (saturation and displacement) to rSNORF33-transfected COS-7 membranes; parameters: expressed in transfected cells; host or cells: COS-7 (transient); details: rSNORF33 in transfected COS-7 membranes; 2–4 experiments; read-out: Mean Ki ± S.D.M., displacement of [3H]-tyramine
Experimental: as §1, with “Radioligand” for “[^3H]-TYR and [^3H]-T binding assays were performed essentially as described by Mallard et al. (1992), with minor modifications. Radioligand”
as §2

hSNORF33 [5] = target: T1, hSNORF33; assay: Intracellular cAMP release in human SNORF33-transfected COS-7 cells; type: cell-based; parameters: expressed in transfected cells; host or cells: COS-7 (transient)
Experimental: as §3, §4

mouse SNORF33 [6] = target: T3, mouse SNORF33; assay: cAMP assay at mouse SNORF33; type: cell-based
Experimental: as §3, §4

T3 sequence (Q923Y8 whole entry): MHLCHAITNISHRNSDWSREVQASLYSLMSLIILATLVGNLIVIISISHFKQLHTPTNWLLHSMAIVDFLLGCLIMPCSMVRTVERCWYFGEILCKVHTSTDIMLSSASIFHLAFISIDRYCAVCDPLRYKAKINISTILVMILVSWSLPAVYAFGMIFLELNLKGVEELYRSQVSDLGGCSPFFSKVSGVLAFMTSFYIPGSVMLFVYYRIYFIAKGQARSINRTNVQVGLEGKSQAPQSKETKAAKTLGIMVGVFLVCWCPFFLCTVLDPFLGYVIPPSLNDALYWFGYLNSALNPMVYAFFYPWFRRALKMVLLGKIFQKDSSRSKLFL
T2 sequence (Q923Y9 whole entry): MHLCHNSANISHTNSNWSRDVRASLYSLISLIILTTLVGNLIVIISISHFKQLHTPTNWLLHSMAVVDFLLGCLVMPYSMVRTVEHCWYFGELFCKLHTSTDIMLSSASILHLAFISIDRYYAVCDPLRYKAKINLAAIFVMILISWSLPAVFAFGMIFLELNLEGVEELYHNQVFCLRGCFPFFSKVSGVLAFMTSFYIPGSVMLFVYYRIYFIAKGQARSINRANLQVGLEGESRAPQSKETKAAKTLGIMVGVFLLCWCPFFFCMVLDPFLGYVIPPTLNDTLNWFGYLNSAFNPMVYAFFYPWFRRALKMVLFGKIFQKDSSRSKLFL

In the case of `NCCc1ccccc1` [β-Phenylethylamine (PEA), β-Phenylethylamine], the Ki (hSNORF33 [1]) is reported as 8 ± 6 nM, the EC50 (rSNORF33 [2]) is reported as 10 ± 1 nM and the Ki (mouse SNORF33 [3]) is reported as 19 nM and 47 nM. The Ki (rSNORF33 [4]) was 56 ± 21 nM, the EC50 (hSNORF33 [5]) was 216 ± 149 nM and the “Agonism in the cAMP assay” value (mouse SNORF33 [6]) was “full agonists”.
